Columns and labels:
[1] = target: recombinant human S1P1 receptor (Homo sapiens, UniProt P21453); assay: GTPγS assay to determine EC50 values; assay type: biochemical; conditions: 35S-GTPγS binding, membrane preparations of CHO cells expressing recombinant human S1P1 receptor
Experimental: GTPγS binding assays are performed in 96 well microtiter plates (Nunc, 442587) in a final volume of 200 μl, using membrane preparations of CHO cells expressing recombinant human S1P1 receptor. Assay conditions are 20 mM Hepes (Fluka, 54461), 100 mM NaCl (Fluka, 71378), 5 mM MgCl2 (Fluka, 63064), 0.1% BSA (Calbiochem, 126609), 1 μM GDP (Sigma, G-7127), 2.5% DMSO (Fluka, 41644), 50 pM ^35S-GTPγS (Amersham Biosciences, SJ1320). The pH is 7.4. Test compounds are dissolved and diluted in 100% DMSO and pre-incubated at room temperature for 30 min in 150 μl of the above assay buffer, in the absence of ^35S-GTPγS. After addition of 50 μl of ^35S-GTPγS, the assay is incubated for 1 h at rt. The assay is terminated by transfer of the reaction mixture to a Multiscreen plate (Millipore, MAHFC1H60) using a cell harvester from Packard Biosciences, and the plates are washed with ice-cold 10 mM Na2HPO4/NaH2PO4 (70%/30%), dried, sealed at the bottom and, after addition of 25 μl MicroScint20 (Packard Biosciences, order no. 6013621), sealed on the top. Membrane-bound ^35S-GTPγS is measured with a TopCount from Packard Biosciences.
EC50 is the concentration of agonist inducing 50% of the maximal specific ^35S-GTPγS binding. Specific binding is determined by subtracting non-specific binding from maximal binding. […]
The EC50 value was determined according to the method described above.

circulating lymphocytes = assay: Assessment of in vivo efficacy: circulating lymphocytes after oral administration; design: species or system normotensive male Wistar rats; conditions: 6 h after oral administration of 10 mg/kg, male Wistar rats, compared to vehicle group; mean ± SEM
Experimental: The efficacy of the compounds of Formula (I) is assessed by measuring the circulating lymphocytes after oral administration of 3 to 30 mg/kg of a compound of Formula (I) to normotensive male Wistar rats. The animals are housed in climate-controlled conditions with a 12 h-light/dark cycle, and have free access to normal rat chow and drinking water. Blood is collected before and 3, 6 and 24 h after drug administration. Full blood is subjected to hematology using Advia Hematology system (Bayer Diagnostics, Zurich, Switzerland).
All data are presented as mean ±SEM. Statistical analyses are performed by analysis of variance (ANOVA) using Statistica (StatSoft) and the Student-Newman-Keuls procedure for multiple comparisons. The null hypothesis is rejected when p<0.05.

Chain of recombinant human S1P1 receptor (P21453 whole entry): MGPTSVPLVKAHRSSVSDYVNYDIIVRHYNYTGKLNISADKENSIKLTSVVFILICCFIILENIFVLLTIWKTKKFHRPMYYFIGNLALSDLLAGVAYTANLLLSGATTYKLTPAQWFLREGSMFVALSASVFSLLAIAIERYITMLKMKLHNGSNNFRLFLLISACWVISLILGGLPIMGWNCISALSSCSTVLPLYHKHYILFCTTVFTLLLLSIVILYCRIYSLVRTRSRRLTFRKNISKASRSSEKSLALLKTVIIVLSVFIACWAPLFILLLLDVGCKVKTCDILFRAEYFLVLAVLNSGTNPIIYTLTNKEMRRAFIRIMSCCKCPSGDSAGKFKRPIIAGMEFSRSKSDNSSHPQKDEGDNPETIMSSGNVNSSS

Row | EC50 [1] [nM] | Compound | Lymphocyte counts (circulating lymphocytes) [%]
1 | 4 | CCc1cc(CCC(=O)c2sc(C(F)(F)F)c3c2CCC(C)(C)C3)cc(C)c1CCC(=O)O [Example 4, 3-{4-[3-(5,5-Dimethyl-3-trifluoromethyl-4,5,6,7-tetrahydro-benzo[c]thiophen-1-yl)-3-oxo-propyl]-2-ethyl-6-methyl-phenyl}-propionic acid] | –
2 | – | CCc1sc(C(=O)CCc2cc(C)c(CCC(=O)O)c(C)c2)c2c1CC(C)(C)CC2 [Example 1, 3-{4-[3-(3-ethyl-5,5-dimethyl-4,5,6,7-tetrahydro-benzo[c]thiophen-1-yl)-3-oxo-propyl]-2,6-dimethyl-phenyl}-propionic acid] | −61 ± 5
